The supplement of paper PMC13380429

Tests used:
Conditions in all cases: 72 h
Caco-2 [1] = test: cell viability relative to DMSO; higher = less toxic
Calu-3 [2] = test: as above
HepG2 [3] = test: as above
U2OS [4] = test: as above
Vero E6 [5] = test: as above
Caco-2 [6] = test: relative viability EC50 (midpoint between 100% and the lowest measured viability); higher = less toxic
Calu-3 [7] = test: as above
HepG2 [8] = test: as above
U2OS [9] = test: as above
Vero E6 [10] = test: as above
Caco-2 [11] = test: drug sensitivity score (DSS) for viability; higher = more toxic; extreme values may be limits of the assay
Calu-3 [12] = test: as above
HepG2 [13] = test: as above
U2OS [14] = test: as above
Vero E6 [15] = test: as above

Row | Structure (SMILES) | cell viability (Caco-2 [1]; 1 nM) [%] | cell viability (Caco-2 [1]; 10 nM) [%] | cell viability (Caco-2 [1]; 100 nM) [%] | cell viability (Caco-2 [1]; 1000 nM) [%] | cell viability (Caco-2 [1]; 10000 nM) [%] | cell viability (Calu-3 [2]; 1 nM) [%] | cell viability (Calu-3 [2]; 10 nM) [%] | cell viability (Calu-3 [2]; 100 nM) [%] | cell viability (Calu-3 [2]; 1000 nM) [%] | cell viability (Calu-3 [2]; 10000 nM) [%] | cell viability (HepG2 [3]; 1 nM) [%] | cell viability (HepG2 [3]; 10 nM) [%] | cell viability (HepG2 [3]; 100 nM) [%] | cell viability (HepG2 [3]; 1000 nM) [%] | cell viability (HepG2 [3]; 10000 nM) [%] | cell viability (U2OS [4]; 1 nM) [%] | cell viability (U2OS [4]; 10 nM) [%] | cell viability (U2OS [4]; 100 nM) [%] | cell viability (U2OS [4]; 1000 nM) [%] | cell viability (U2OS [4]; 10000 nM) [%] | cell viability (Vero E6 [5]; 1 nM) [%] | cell viability (Vero E6 [5]; 10 nM) [%] | cell viability (Vero E6 [5]; 100 nM) [%] | cell viability (Vero E6 [5]; 1000 nM) [%] | cell viability (Vero E6 [5]; 10000 nM) [%] | relative viability EC50 (Caco-2 [6]) [µM] | relative viability EC50 (Calu-3 [7]) [µM] | relative viability EC50 (HepG2 [8]) [µM] | relative viability EC50 (U2OS [9]) [µM] | relative viability EC50 (Vero E6 [10]) [µM] | drug sensitivity score (Caco-2 [11]) | drug sensitivity score (Calu-3 [12]) | drug sensitivity score (HepG2 [13]) | drug sensitivity score (U2OS [14]) | drug sensitivity score (Vero E6 [15])
1 | CN(C)CCCCSC(=N)N | 104 | 111 | 99.6 | 105 | 97.9 | 90.6 | 89.5 | 89 | 91.8 | 90.1 | 104 | 103 | 90.7 | 93 | 95.1 | 94 | 92.8 | 100 | 94.7 | 97.8 | 104 | 108 | 101 | 105 | 99.3 | > 10 | > 10 | > 10 | > 10 | > 10 | 0 | 0.8 | 0 | 0 | 0
2 | COc1cccc(NC(=O)/C=C/c2ccc(Cl)cc2)c1 | 98.2 | 100 | 98.5 | 88.3 | 81 | 104 | 99.4 | 93.3 | 108 | 84.2 | 102 | 103 | 99.8 | 98.3 | 105 | 93 | 100 | 96.3 | 97.9 | 92.8 | 102 | 96.4 | 97.2 | 95 | 107 | > 10 | > 10 | > 10 | > 10 | > 10 | 1.4 | 0.1 | 0 | 0 | 0
3 | Cc1cnc(-c2cc(N3CCN(C(=O)CCS(C)(=O)=O)CC3)ncc2Cl)c(C)c1 | 103 | 90.2 | 102 | 99.1 | 106 | 104 | 105 | 92.8 | 110 | 109 | 99.9 | 93.2 | 98.6 | 101 | 113 | 92.1 | 101 | 98.1 | 105 | 101 | 94.5 | 93.4 | 95.4 | 95.3 | 102 | > 10 | > 10 | > 10 | > 10 | > 10 | 0 | 0 | 0 | 0 | 0
4 | O=C(NC1CCC1)c1ccc(C#Cc2cccc(F)c2)nc1 | 92.4 | 102 | 96.5 | 98.9 | 95.4 | 96.1 | 98.6 | 98.8 | 103 | 90.7 | 91.7 | 93.9 | 89.4 | 85.8 | 93 | 104 | 102 | 96.3 | 100 | 91.6 | 98.6 | 98.5 | 96.8 | 90 | 92.1 | > 10 | > 10 | > 10 | > 10 | > 10 | 0 | 0 | 0 | 0 | 0
5 | Cc1nnc(C(C)C)n1C1C[C@H]2CC[C@@H](C1)N2CC[C@H](NC(=O)C1CCC(F)(F)CC1)c1ccccc1 (stereo in doubt) [maraviroc] | 101 | 93.8 | 99.5 | 97.9 | 108 | 107 | 89.8 | 101 | 108 | 114 | 114 | 97.3 | 94.4 | 86.5 | 101 | 99.4 | 95.1 | 100 | 99.7 | 106 | 97.4 | 97.8 | 97.1 | 92.3 | 104 | > 10 | > 10 | > 10 | > 10 | > 10 | 0 | 0 | 0 | 0 | 0
6 | CCn1c(=O)[nH]c2ccccc21 [1-EBIO] | 94.4 | 93.5 | 98 | 100 | 91 | 99.1 | 105 | 104 | 106 | 81.8 | 96.7 | 98.6 | 91.4 | 84 | 110 | 95.7 | 94.3 | 104 | 98.4 | 93.2 | 97.4 | 97.5 | 89.7 | 98.2 | 104 | > 10 | > 10 | > 10 | > 10 | > 10 | 0 | 0.3 | 0 | 0 | 0
7 | c1ccc2oc(C3=NCCN3)cc2c1 [2-BFI] | 102 | 96.2 | 97.7 | 93.6 | 112 | 95.9 | 99.7 | 102 | 100 | 95.7 | 97.9 | 98.3 | 87.5 | 98 | 100 | 100 | 96.7 | 99.7 | 99.9 | 97.7 | 93.8 | 100 | 90.5 | 94.4 | 107 | > 10 | > 10 | > 10 | > 10 | > 10 | 0 | 0 | 0 | 0 | 0
8 | CCCC(O)C(CC)CO (stereo not given) [2-ethyl-1,3-hexanediol] | 106 | 88.9 | 101 | 93.9 | 93.3 | 105 | 101 | 102 | 94.6 | 103 | 78.7 | 105 | 98.8 | 81.1 | 101 | 102 | 99.1 | 95.9 | 97.8 | 102 | 95.5 | 102 | 101 | 104 | 75.5 | > 10 | > 10 | > 10 | > 10 | > 10 | 0 | 0 | 0 | 0 | 0.7
9 | COc1ccccc1N1CCN(CCn2c(=O)[nH]c3c([nH]c4ccccc43)c2=O)CC1 [3-MPPI] | 96 | 93.8 | 99.4 | 96.1 | 103 | 99.6 | 105 | 104 | 98.8 | 106 | 102 | 111 | 106 | 102 | 92.2 | 103 | 98 | 102 | 99.4 | 101 | 104 | 104 | 102 | 99.4 | 103 | > 10 | > 10 | > 10 | > 10 | > 10 | 0 | 0 | 0 | 0 | 0
10 | COc1ccc(-c2coc3cc(O)cc(O)c3c2=O)cc1 [4-methylgenistein] | 98.7 | 98.1 | 105 | 104 | 96 | 113 | 99 | 101 | 106 | 91 | 106 | 109 | 102 | 92.6 | 95.2 | 99.3 | 94.1 | 99.3 | 98.8 | 97.1 | 94 | 95 | 101 | 88.5 | 102 | > 10 | > 10 | > 10 | > 10 | > 10 | 0 | 0 | 0 | 0 | 0
11 | C[C@]12CCC(=O)C=C1CC[C@@H]1[C@@H]2CC[C@@]2(C)[C@H]1CC[C@]2(C)O [17-alpha-Methyltestosterone] | 99.2 | 89.5 | 90.4 | 98.8 | 102 | 108 | 97.1 | 114 | 106 | 115 | 103 | 90.8 | 91.5 | 96.8 | 101 | 97.6 | 96.1 | 104 | 101 | 97.1 | 92.6 | 97.4 | 94.4 | 91.9 | 105 | > 10 | > 10 | > 10 | > 10 | > 10 | 0 | 0 | 0 | 0 | 0
12 | Oc1ccc(C2(c3ccccc3F)CCC(F)(F)CC2)cc1 [AC-186] | 104 | 95 | 98.2 | 96.2 | 102 | 91 | 98.4 | 89.3 | 105 | 104 | 95.8 | 94.7 | 100 | 96.3 | 104 | 95.1 | 96.3 | 95.5 | 99.3 | 99 | 97.4 | 96.5 | 94.2 | 92.2 | 109 | > 10 | > 10 | > 10 | > 10 | > 10 | 0 | 0 | 0 | 0 | 0
13 | CC(C)OC(=O)N1CCC(Oc2ncnc3c2cnn3-c2ccc(S(C)(=O)=O)cc2F)CC1 [APD668] | 106 | 98.4 | 93.6 | 96.1 | 89.1 | 106 | 107 | 102 | 108 | 92.7 | 103 | 102 | 96.2 | 98.6 | 77.1 | 99.4 | 101 | 97.4 | 106 | 97.5 | 90.5 | 95.2 | 100 | 95.7 | 105 | > 10 | > 10 | > 10 | > 10 | > 10 | 0 | 0 | 1 | 0 | 0
14 | Cc1cc(Nc2nc(N[C@@H](C)c3ncc(F)cn3)ncc2Cl)[nH]n1 [AZD1480] | 93.2 | 102 | 95.5 | 102 | 84.2 | 106 | 91.6 | 99.7 | 96.6 | 90.8 | 98.6 | 101 | 96.5 | 87.9 | 89.4 | 99.7 | 102 | 102 | 101 | 97 | 94.3 | 96.2 | 95.9 | 100 | 97.9 | > 10 | > 10 | > 10 | > 10 | > 10 | 0.2 | 0 | 0.7 | 0 | 0
